Format in all cases: binding
Parameters in all cases: KINOMEscan: ABL1(F317L)-phosphorylated / KINOMEscan: ABL1(H396P)-nonphosphorylated / KINOMEscan: ABL1(H396P)-phosphorylated / KINOMEscan: ABL1(M351T)-phosphorylated / KINOMEscan: ABL1(T315I)-phosphorylated / KINOMEscan: ABL1-nonphosphorylated / KINOMEscan: ABL1-phosphorylated / KINOMEscan: ACVR2A / KINOMEscan: ACVR2B / KINOMEscan: ADCK3 / KINOMEscan: ADCK4 / KINOMEscan: AKT1 / KINOMEscan: AKT3 / KINOMEscan: ALK / KINOMEscan: ARK5 / KINOMEscan: AURKA / KINOMEscan: AURKC / KINOMEscan: BIKE / KINOMEscan: BMPR1A / KINOMEscan: BMPR1B / KINOMEscan: BMX / KINOMEscan: BRK / KINOMEscan: BRSK1 / KINOMEscan: BRSK2 / KINOMEscan: CAMK1 / KINOMEscan: CAMK1D / KINOMEscan: CAMK1G / KINOMEscan: CAMK2A / KINOMEscan: CAMK2B / KINOMEscan: AAK1 / KINOMEscan: CAMK2D / KINOMEscan: CAMK2G / KINOMEscan: ABL1(F317I)-nonphosphorylated / KINOMEscan: ABL1(F317I)-phosphorylated / KINOMEscan: ABL1(F317L)-nonphosphorylated: unit: % Ctrl
Conditions in all cases: Compound Concentration 10 µM

Assay [1] deals with T1, panel of 442 kinases (Homo sapiens, UniProt Q13555).
T1 construct: purchased KINOMEscan
From the text: (§1) We assessed the selectivity of members of this scaffold using the KINOMEscan methodology across a near comprehensive panel of 442 kinases [[18,27]].

The target of assay [2] is T2, panel of 442 kinases (Homo sapiens, UniProt Q9UM73).
T2 construct: purchased KINOMEscan
Excerpt: as §1

Assay [3] addresses T3, panel of 442 kinases (Homo sapiens, UniProt O14757).
T3 construct: purchased KINOMEscan
T3 sequence (O14757 1-476): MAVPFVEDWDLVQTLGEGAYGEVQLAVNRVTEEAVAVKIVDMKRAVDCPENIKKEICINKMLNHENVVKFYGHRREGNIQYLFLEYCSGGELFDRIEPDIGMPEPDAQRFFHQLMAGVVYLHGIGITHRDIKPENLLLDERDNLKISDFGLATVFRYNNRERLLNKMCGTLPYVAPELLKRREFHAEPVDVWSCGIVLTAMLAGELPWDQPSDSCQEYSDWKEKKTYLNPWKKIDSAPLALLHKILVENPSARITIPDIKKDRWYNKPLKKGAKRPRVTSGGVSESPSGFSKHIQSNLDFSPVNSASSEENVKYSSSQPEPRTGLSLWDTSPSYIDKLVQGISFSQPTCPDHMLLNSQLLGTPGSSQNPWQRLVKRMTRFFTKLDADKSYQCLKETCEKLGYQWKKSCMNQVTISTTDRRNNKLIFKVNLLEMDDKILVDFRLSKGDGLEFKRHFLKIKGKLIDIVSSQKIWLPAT
Excerpt: as §1

T1 sequence (Q13555 whole entry): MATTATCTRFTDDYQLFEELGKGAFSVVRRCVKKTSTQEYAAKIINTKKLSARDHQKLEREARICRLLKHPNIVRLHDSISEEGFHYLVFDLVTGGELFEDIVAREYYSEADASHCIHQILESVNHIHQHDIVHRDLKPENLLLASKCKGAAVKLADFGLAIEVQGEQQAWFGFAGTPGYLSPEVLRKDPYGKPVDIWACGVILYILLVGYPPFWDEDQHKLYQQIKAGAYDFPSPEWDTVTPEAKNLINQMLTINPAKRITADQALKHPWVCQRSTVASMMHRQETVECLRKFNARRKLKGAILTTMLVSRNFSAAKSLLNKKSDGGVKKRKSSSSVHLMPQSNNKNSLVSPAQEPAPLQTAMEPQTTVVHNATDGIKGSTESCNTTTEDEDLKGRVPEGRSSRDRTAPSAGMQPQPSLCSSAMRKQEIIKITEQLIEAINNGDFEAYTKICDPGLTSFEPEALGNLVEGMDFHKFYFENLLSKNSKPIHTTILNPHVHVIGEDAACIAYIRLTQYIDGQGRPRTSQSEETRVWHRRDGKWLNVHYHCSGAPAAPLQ
T2 sequence (Q9UM73 19-1620): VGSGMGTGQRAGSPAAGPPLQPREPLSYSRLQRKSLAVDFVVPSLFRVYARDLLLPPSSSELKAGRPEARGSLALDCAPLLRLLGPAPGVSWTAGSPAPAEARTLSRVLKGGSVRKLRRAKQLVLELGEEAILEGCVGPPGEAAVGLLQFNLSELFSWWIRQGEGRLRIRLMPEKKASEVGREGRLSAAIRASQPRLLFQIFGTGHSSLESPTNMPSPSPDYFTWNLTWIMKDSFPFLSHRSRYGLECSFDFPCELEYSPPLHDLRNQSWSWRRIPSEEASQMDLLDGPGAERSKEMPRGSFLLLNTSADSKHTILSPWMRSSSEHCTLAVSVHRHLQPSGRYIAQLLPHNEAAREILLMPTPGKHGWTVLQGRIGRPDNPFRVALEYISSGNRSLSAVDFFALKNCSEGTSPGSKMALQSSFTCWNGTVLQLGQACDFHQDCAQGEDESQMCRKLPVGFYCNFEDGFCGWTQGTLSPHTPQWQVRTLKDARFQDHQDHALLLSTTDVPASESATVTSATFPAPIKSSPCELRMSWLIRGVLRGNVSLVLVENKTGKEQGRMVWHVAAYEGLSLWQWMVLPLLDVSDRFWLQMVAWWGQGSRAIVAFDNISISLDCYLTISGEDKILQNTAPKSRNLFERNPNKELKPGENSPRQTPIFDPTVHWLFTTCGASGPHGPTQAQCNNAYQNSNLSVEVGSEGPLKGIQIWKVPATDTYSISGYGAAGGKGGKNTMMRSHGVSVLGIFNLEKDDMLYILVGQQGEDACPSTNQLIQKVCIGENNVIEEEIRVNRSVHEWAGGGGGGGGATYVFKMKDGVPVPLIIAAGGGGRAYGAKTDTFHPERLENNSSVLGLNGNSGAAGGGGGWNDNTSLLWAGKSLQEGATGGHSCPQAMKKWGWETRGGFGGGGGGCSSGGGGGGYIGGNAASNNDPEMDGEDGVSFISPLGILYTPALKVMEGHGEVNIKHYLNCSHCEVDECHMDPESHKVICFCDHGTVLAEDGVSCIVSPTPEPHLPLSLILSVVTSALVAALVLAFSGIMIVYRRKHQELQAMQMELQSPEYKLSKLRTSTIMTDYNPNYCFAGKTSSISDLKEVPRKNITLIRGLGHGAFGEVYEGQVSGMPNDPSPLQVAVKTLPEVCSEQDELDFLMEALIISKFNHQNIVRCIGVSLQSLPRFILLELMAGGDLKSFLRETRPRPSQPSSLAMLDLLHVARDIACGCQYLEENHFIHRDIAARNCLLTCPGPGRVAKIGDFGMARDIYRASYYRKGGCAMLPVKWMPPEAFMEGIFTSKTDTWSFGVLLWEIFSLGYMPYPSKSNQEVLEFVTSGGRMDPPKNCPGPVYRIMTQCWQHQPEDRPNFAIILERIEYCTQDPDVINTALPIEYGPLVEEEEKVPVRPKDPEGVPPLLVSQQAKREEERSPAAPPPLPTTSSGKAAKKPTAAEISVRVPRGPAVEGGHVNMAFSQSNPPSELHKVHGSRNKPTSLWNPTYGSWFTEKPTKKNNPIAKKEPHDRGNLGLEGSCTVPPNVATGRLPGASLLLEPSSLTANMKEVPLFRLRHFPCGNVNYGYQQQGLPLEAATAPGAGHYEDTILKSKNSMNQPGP

As to `CCOc1cc(C(=O)N2CCC(N3CCN(C)CC3)CC2)ccc1Nc1ncc2c(n1)N(C1CCCC1)c1ccccc1C(=O)N2C` [Compound 26], on panel of 442 kinases [1], the “KINOMEscan: CAMK2G” value turned out to be 94. Moreover, at panel of 442 kinases [2], the “KINOMEscan: ALK” value is 21. Besides, at panel of 442 kinases [3], the “KINOMEscan: CHEK1” value came to 100.

As for `COc1cc(C(=O)N2CCC(N3CCN(C)CC3)CC2)ccc1Nc1ncc2c(n1)N1CCc3cccc(c31)C(=O)N2C` [Compound 24], on panel of 442 kinases [1], the “KINOMEscan: CAMK2G” value is on record as 76. Besides, on panel of 442 kinases [2], the “KINOMEscan: ALK” value came out at 31. Further, the “KINOMEscan: CHEK1” value on panel of 442 kinases [3] is 85.

Take `COc1cc(C(=O)N2CCC(N3CCN(C)CC3)CC2)ccc1Nc1ncc2c(n1)N(C)c1ccccc1C(=O)N2C` [15 (LRRK2-IN-1)]: on panel of 442 kinases [1], the “KINOMEscan: CAMK2G” value is listed as 47. Further, on panel of 442 kinases [2], the “KINOMEscan: ALK” value was found to be 13. Moreover, at panel of 442 kinases [3], the “KINOMEscan: CHEK1” value was found to be 100.

As for `COc1cc(C(=O)N2CCC(N3CCN(C)CC3)CC2)ccc1Nc1ncc2c(n1)N(C1CCCC1)c1ccccc1C(=O)N2C` [Compound 25, 11-cyclopentyl-2-((2-methoxy-4-(4-(4-methylpiperazin-1-yl)piperidine-1-carbonyl)phenyl)amino)-5-methyl-5H-benzo[e]pyrimido[5,4-b][1,4]diazepin-6(11H)-one], the “KINOMEscan: CAMK2G” value at panel of 442 kinases [1] was 98. For the same compound, the “KINOMEscan: ALK” value at panel of 442 kinases [2] is recorded as 15. The “KINOMEscan: CHEK1” value on panel of 442 kinases [3] stood at 100.

Values taken from article PMC3914206.
